The target in one assay is T1, h-TGR5 (Homo sapiens, UniProt Q8TDU6).
T1 sequence (Q8TDU6 1-330): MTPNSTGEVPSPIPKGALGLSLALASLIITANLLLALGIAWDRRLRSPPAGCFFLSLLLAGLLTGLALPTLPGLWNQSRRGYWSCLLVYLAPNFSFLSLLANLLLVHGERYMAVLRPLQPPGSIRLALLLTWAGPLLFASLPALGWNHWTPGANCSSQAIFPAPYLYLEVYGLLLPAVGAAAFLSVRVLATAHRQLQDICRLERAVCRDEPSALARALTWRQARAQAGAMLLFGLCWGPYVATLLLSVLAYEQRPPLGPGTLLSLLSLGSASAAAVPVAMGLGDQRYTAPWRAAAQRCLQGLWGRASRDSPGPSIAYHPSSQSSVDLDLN
Briefly: TGR5 cAMP Assay using Cisbio cAMP Dynamic 2 htrf assay kit. It is filed as cell-based. The conditions noted are these: hTGR5CRE-luc HEK 293 cells.

A further assay concerns the target T2, human TGR5 (h-TGR5) (Homo sapiens, UniProt Q8TDU6).
T2 sequence (Q8TDU6 1-330): T1 sequence (Q8TDU6 1-330)
Briefly: TGR5/CRE-Luciferase Assay. The conditions noted are these: HEK 293 hTGR5/CRE-Luc cells, 6 hours incubation, read-out: CRE-Luc Agonist (EC50). It is filed as cell-based. Put shortly: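 HEK 293 CRE-Luciferase cells stably expressing the receptor, plated in DMEM 18-20 h before assay, then exposed to serially diluted compounds (DMEM with 5% DMSO) for 6 h. Luciferase read-out after lysis; EC50 from dose-response.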

A value given as a limit tells only on which side of the number the result lay.

With `COC(=O)c1cc(-n2c(C(C)(C)c3ccc(Cl)c(OC)c3)cnc2SCc2c(F)cc(S(=O)(=O)NCCC[N+](C)(C)C)cc2F)ccc1F` [Example 6g, 3-{[(4-{[(5-{1-[4-chloro-3-(methyloxy)phenyl]-1-methylethyl}-1-{4-fluoro-3-[(methyloxy)carbonyl]phenyl}-1H-imidazol-2-yl)thio]methyl}-3,5-difluorophenyl)sulfonyl]amino}-N,N,N-trimethylpropan-1-aminium], the EC50 at h-TGR5 and at human TGR5 (h-TGR5) was 100 to 1000 nM in each case.

Turning to `COc1cc(C(C)(C)c2cnc(SCc3c(F)cc(S(=O)(=O)NC4CC[N+](C)(C)CC4)cc3F)n2-c2ccc(F)cc2)ccc1Cl` [Compound 11b, 4-({[4-({[5-{1-[4-chloro-3-(methyloxy)phenyl]-1-methylethyl}-1-(4-fluorophenyl)-1H-imidazol-2-yl]thio}methyl)-3,5-difluorophenyl]sulfonyl}amino)-1,1-dimethylpiperidinium], the EC50 on h-TGR5 and on human TGR5 (h-TGR5) was < 100 nM each time.

In the case of `COc1cc(C(C)(C)c2cnc(SCc3c(F)cc(S(=O)(=O)N(C)[C@@H](CCCC[N+](C)(C)C)C(=O)O)cc3F)n2-c2ccc(F)cc2)ccc1Cl` [Compound 17g, (S)-5-carboxy-5-(4-((5-(2-(4-chloro-3-methoxyphenyl)propan-2-yl)-1-(4-fluorophenyl)-1H-imidazol-2-ylthio)methyl)-3,5-difluoro-N-methylphenylsulfonamido)-N,N,N-trimethylpentan-1-aminium 2,2,2-trifluoroacetate], the EC50 on h-TGR5 and at human TGR5 (h-TGR5) was < 100 nM each time.

Regarding `COc1cc(C(C)(C)c2cnc(SCc3c(F)cc(S(=O)(=O)N(CCC[N+](C)(C)C)[C@@H](C)C(=O)O)cc3F)n2-c2ccc(F)cc2)ccc1Cl` [Compound 14b, (S)-3-(N-(1-carboxyethyl)-4-((5-(2-(4-chloro-3-methoxyphenyl)propan-2-yl)-1-(4-fluorophenyl)-1H-imidazol-2-ylthio)methyl)-3,5-difluorophenylsulfonamido)-N,N,N-trimethylpropan-1-aminium 2,2,2-trifluoroacetate], the EC50 at h-TGR5 and at human TGR5 (h-TGR5) was < 100 nM each time.

As to `CN([C@@H](CCC[N+](C)(C)C)C(=O)O)S(=O)(=O)c1cc(F)c(CSc2ncc(C(C)(C)c3ccc(F)c(Cl)c3)n2-c2ccc(F)cc2)c(F)c1` [Compound 14h, (S)-4-carboxy-4-(4-((5-(2-(3-chloro-4-fluorophenyl)propan-2-yl)-1-(4-fluorophenyl)-1H-imidazol-2-ylthio)methyl)-3,5-difluoro-N-methylphenylsulfonamido)-N,N,N-trimethylbutan-1-aminium chloride], the EC50 at h-TGR5 and at human TGR5 (h-TGR5) was < 100 nM in each case.

For the molecule `COc1cc(C(C)(C)c2cnc(SCc3c(F)cc(S(=O)(=O)N(C)[C@@H](CCC[N+](C)(C)C)C(=O)O)cc3F)n2-c2ccc(F)cc2)ccc1F` [Compound 14e, (S)-4-carboxy-4-(3,5-difluoro-4-((5-(2-(4-luoro-3-methoxyphenyl)propan-2-yl)-1-(4-fluorophenyl)-1H-imidazol-2-ylthio)methyl)-N-methylphenylsulfonamido)-N,N,N-trimethylbutan-1-aminium chloride], the EC50 on h-TGR5 and on human TGR5 (h-TGR5) was < 100 nM in each case.

On to `COc1cc(C(C)(C)c2cnc(SCc3c(F)cc(S(=O)(=O)NCCC[N+](C)(C)C)cc3F)n2-c2ccc(F)cc2)ccc1Cl` [Example 6, 3-(4-((5-(2-(4-Chloro-3-methoxyphenyl)propan-2-yl)—(4-fluorophenyl)-1H-imidazol-2-ylthio)methyl)-3,5-difluorophenylsulfonamido)-N,N,N-trimethylpropan-1-aminium 2,2,2-trifluoroacetate], for which the EC50 at h-TGR5 and at human TGR5 (h-TGR5) was < 100 nM throughout.

For `COc1cc(C(C)(C)c2cnc(SCc3c(F)cc(S(=O)(=O)N[C@H]4CCC[N+](C)(C)C4)cc3F)n2-c2ccc(F)cc2)ccc1Cl` [Compound 11e, (3S)-3-({[4-({[5-{1-[4-chloro-3-(methyloxy)phenyl]-1-methylethyl}-1-(4-fluorophenyl)-1H-imidazol-2-yl]thio}methyl)-3,5-difluorophenyl]sulfonyl}amino)-1,1-dimethylpiperidinium], the EC50 on h-TGR5 and on human TGR5 (h-TGR5) was < 100 nM in each case.

Turning to `COc1cc(C(C)(C)c2cnc(SCc3c(F)cc(S(=O)(=O)N(CCCC[N+](C)(C)C)C(C)(C)C(=O)O)cc3F)n2-c2ccc(F)cc2)ccc1Cl` [Compound 14ai, 4-(N-(2-carboxypropan-2-yl)-4-((5-(2-(4-chloro-3-methoxyphenyl)propan-2-yl)-1-(4-fluorophenyl)-1H-imidazol-2-ylthio)methyl)-3,5-difluorophenylsulfonamido)-N,N,N-trimethylbutan-1-aminium 2,2,2-trifluoroacetate], the EC50 at h-TGR5 and at human TGR5 (h-TGR5) was < 100 nM throughout.

In the case of `CC[N+](CC)(CC)CCCNC(=O)NS(=O)(=O)c1cc(F)c(CSc2ncc(C(C)(C)c3ccc(Cl)c(OC)c3)n2-c2ccc(F)cc2)c(F)c1` [Example 8, 3-(3-(4-((5-(2-(4-Chloro-3-methoxyphenyl)propan-2-yl)-1-(4-fluorophenyl)-1H-imidazol-2-ylthio)methyl)-3,5-difluorophenylsulfonyl)ureido)-N,N,N-triethylpropan-1-aminium 2,2,2-trifluoroacetate], the EC50 at h-TGR5 and at human TGR5 (h-TGR5) was < 100 nM each time.

Regarding `COc1cc(C(C)(C)c2cnc(SCc3c(F)cc(S(=O)(=O)N(CCC[n+]4ccn(C)c4)[C@H](C)C(=O)O)cc3Cl)n2-c2ccc(F)cc2)ccc1Cl` [Compound 15b, (R)-3-(3-(N-(1-carboxyethyl)-3-chloro-4-((5-(2-(4-chloro-3-methoxyphenyl)propan-2-yl)-1-(4-fluorophenyl)-1H-imidazol-2-ylthio)methyl)-5-fluorophenylsulfonamido)propyl)-1-methyl-1H-imidazol-3-ium chloride], the EC50 on h-TGR5 and at human TGR5 (h-TGR5) was < 100 nM each time.

As to `COc1cc(C(C)(C)c2cnc(SCc3c(F)cc(S(=O)(=O)N(CCC[N+](C)(C)C)CCC(=O)O)cc3Cl)n2-c2ccc(F)cc2)ccc1Cl` [Compound 14u, 3-[(2-carboxyethyl){[3-chloro-4-({[5-{1-[4-chloro-3-(methyloxy)phenyl]-1-methylethyl}-1-(4-fluorophenyl)-1H-imidazol-2-yl]thio}methyl)-5-fluorophenyl)sulfonyl}amino]-N,N,N-trimethylpropan-1-aminium], the EC50 on h-TGR5 and on human TGR5 (h-TGR5) was < 100 nM throughout.

Consider `COc1cc(C(C)(C)c2cnc(SCc3cc(S(=O)(=O)NCCC[N+](C)(C)C)c(Cl)cc3F)n2-c2ccc(F)cc2)ccc1Cl` [Example 6q, 3-({[2-chloro-5-({[5-{1-[4-chloro-3-(methyloxy)phenyl]-1-methylethyl}-1-(4-fluorophenyl)-1H-imidazol-2-yl]thio}methyl)-4-fluorophenyl]sulfonyl}amino)-N,N,N-trimethylpropan-1-aminium], for which the EC50 on h-TGR5 and on human TGR5 (h-TGR5) was < 100 nM each time.

For `COc1cc(C(C)(C)c2cnc(SCc3c(F)cc(S(=O)(=O)N4CC[C@@H]([N+](C)(C)C)C4)cc3Cl)n2-c2ccc(F)cc2)ccc1Cl` [Compound 11i, (3R)-1-{[3-chloro-4-({[5-{1-[4-chloro-3-(methyloxy)phenyl]-1-methylethyl}-1-(4-fluorophenyl)-1H-imidazol-2-yl]thio}methyl)-5-fluorophenyl]sulfonyl}-N,N,N-trimethylpyrrolidin-3-aminium], the EC50 on h-TGR5 and at human TGR5 (h-TGR5) was < 100 nM in each case.

Turning to `COc1cc(C(C)(C)c2cnc(SCc3c(F)cc(S(=O)(=O)N4CCC([N+](C)(C)C)CC4)cc3Cl)n2-c2ccc(F)cc2)ccc1Cl` [Compound 11f, 1-{[3-chloro-4-({[5-{1-[4-chloro-3-(methyloxy)phenyl]-1-methylethyl}-1-(4-fluorophenyl)-1H-imidazol-2-yl]thio}methyl)-5-fluorophenyl]sulfonyl}-N,N,N-trimethylpiperidin-4-aminium], the EC50 on h-TGR5 and on human TGR5 (h-TGR5) was < 100 nM throughout.

For `COc1cc(C(C)(C)c2cnc(SCc3c(F)cc(S(=O)(=O)N(CCC[N+](C)(C)C)CCC[N+](C)(C)C)cc3F)n2-c2ccc(F)cc2)ccc1Cl` [Example 6i, 3,3′-({[4-({[5-{1-[4-chloro-3-(methyloxy)phenyl]-1-methylethyl}-1-(4-fluorophenyl)-1H-imidazol-2-yl]thio}methyl)-3,5-difluorophenyl]sulfonyl}imino)bis(N,N,N-trimethylpropan-1-aminium)], the EC50 was < 100 nM at h-TGR5 and 100 to 1000 nM at human TGR5 (h-TGR5).

Regarding `COc1cc(C(C)(C)c2cnc(SCc3c(F)cc(S(=O)(=O)N(CCO)CCC[N+](C)(C)C)cc3F)n2-c2ccc(F)cc2)ccc1Cl` [Compound 12f, 3-(4-((5-(2-(4-Chloro-3-methoxyphenyl)propan-2-yl)-1-(4-fluorophenyl)-1H-imidazol-2-ylthio)methyl)-3,5-difluoro-N-(2-hydroxyethyl)phenylsulfonamido)-N,N,N-trimethylpropan-1-aminium 2,2,2-trifluoroacetate], the EC50 at h-TGR5 and at human TGR5 (h-TGR5) was < 100 nM in each case.

In the case of `COc1cc(C(C)(C)c2cnc(SCc3c(F)cc(CCC[N+](C)(C)C)cc3Cl)n2-c2ccc(F)cc2)ccc1Cl` [Compound 19d, 3-(3-chloro-4-((5-(2-(4-chloro-3-methoxyphenyl)propan-2-yl)-1-(4-fluorophenyl)-1H-imidazol-2-ylthio)methyl)-5-fluorophenyl)-N,N,N-trimethylpropan-1-aminium 2,2,2-trifluoroacetate], the EC50 on h-TGR5 and at human TGR5 (h-TGR5) was < 100 nM each time.

(Values after patent US8846739B2, “TGR5 agonists” (Exelixis Patent Company LLC, priority 2009, dated 2014).)
